# Source: PMC6522510 (Nature Communications, 2019)
# “And” between values parts separate entries of the source, which are not always exact repeats. Equal entries are not always repeated. Where two headings read alike, the source gives them in different places.
# Columns and labels:
# MOLM-13 [1] = experiment: Secondary dose-response HTS, Cell Titer Glo; format: cell-based, human; details: for EC50: Homo sapiens, read-out: average effective concentration, MOLM-13
# MV4-11 [2] = experiment: Secondary dose-response HTS, Cell Titer Glo; format: cell-based, human; details: for EC50: Homo sapiens, read-out: average effective concentration, MV4-11
# CHRF288-11 [3] = experiment: Secondary dose-response HTS, Cell Titer Glo; format: cell-based, human; details: Homo sapiens, HTS, read-out: average effective concentration, CHRF288-11
# CMK [4] = experiment: Secondary dose-response HTS, Cell Titer Glo; format: cell-based, human; details: CMK; for EC50: Homo sapiens, read-out: average effective concentration, CMK
# CMS [5] = experiment: Secondary dose-response HTS, Cell Titer Glo; format: cell-based, human; details: Homo sapiens, HTS, read-out: average effective concentration, CMS
# M07e [6] = experiment: Secondary dose-response HTS, Cell Titer Glo; format: cell-based, human; details: Homo sapiens, M-07e, read-out: average effective concentration, M07e
# ML2 = experiment: Secondary dose-response HTS, Cell Titer Glo; format: cell-based, human; details: Homo sapiens
# U937 [7] = experiment: Secondary dose-response HTS, Cell Titer Glo; format: cell-based, human; details: Homo sapiens
# MV4-11 [8] = experiment: cells; design: species or system AML cell lines (8); details: Homo sapiens, MV4-11, 72 h, read-out: MV4-11
# CMK [9] = experiment: cells; design: species or system AML cell lines (8); details: Homo sapiens, 72 h, read-out: CMK
# MOLM-13 [10] = experiment: cells; design: species or system AML cell lines (8); Secondary HTS, 10-point dose-response in triplicate, Cell Titer Glo viability, four-parameter fit EC50; details: Homo sapiens, read-out: MOLM-13
# U937 [11] = experiment: cells; design: species or system AML cell lines (8); Secondary HTS, 10-point dose-response in triplicate, Cell Titer Glo viability, four-parameter fit EC50; details: Homo sapiens, U-937; 72 h cell viability; read-out: U937
# CMS [12] = experiment: cells; design: species or system AML cell lines (8); details: 72 h, read-out: CMS
# M07e [13] = experiment: cells; design: species or system AML cell lines (8); details: M-07e, 72 h, read-out: M07e
# U937 [14] = experiment: cells; design: species or system AML cell lines (8); details: Homo sapiens, U-937, 72 h, read-out: U937
# CHRF288-11 [15] = test system: CHRF288-11; design: species or system AML cell lines (8); Primary HTS, single concentration about 10 uM, Cell Titer Glo viability; log10 luminescence, per cent inhibition relative to cycloheximide control; details: 72 h, 10 µM, inhibitor
# CMK [16] = test system: CMK; design: species or system AML cell lines (8); Primary HTS, single concentration about 10 uM, Cell Titer Glo viability; log10 luminescence, per cent inhibition relative to cycloheximide control; details: 72 h, 10 µM, inhibitor
# CMS [17] = test system: CMS; design: species or system AML cell lines (8); Primary HTS, single concentration about 10 uM, Cell Titer Glo viability; log10 luminescence, per cent inhibition relative to cycloheximide control; details: 72 h, 10 µM, inhibitor
# M07e [18] = test system: M07e; design: species or system AML cell lines (8); Primary HTS, single concentration about 10 uM, Cell Titer Glo viability; log10 luminescence, per cent inhibition relative to cycloheximide control; details: 72 h, 10 µM, inhibitor
# ML-2 = test system: ML-2; design: species or system AML cell lines (8); Primary HTS, single concentration about 10 uM, Cell Titer Glo viability; log10 luminescence, per cent inhibition relative to cycloheximide control
# MOLM-13 [19] = test system: MOLM-13; design: species or system AML cell lines (8); Primary HTS, single concentration about 10 uM, Cell Titer Glo viability; log10 luminescence, per cent inhibition relative to cycloheximide control; details: 72 h, 10 µM, inhibitor
# MV4-11 [20] = test system: MV4-11; design: species or system AML cell lines (8); Primary HTS, single concentration about 10 uM, Cell Titer Glo viability; log10 luminescence, per cent inhibition relative to cycloheximide control; details: 72 h, 10 µM, inhibitor
# U937 [21] = test system: U937; design: species or system AML cell lines (8); Primary HTS, single concentration about 10 uM, Cell Titer Glo viability; log10 luminescence, per cent inhibition relative to cycloheximide control; details: 72 h, 10 µM, inhibitor
# [22] = test system: MLLr primary AML blast samples; experiment: Ex vivo drug treatment of primary AML blasts on mesenchymal stromal cells; format: cell-based; details: Homo sapiens; primary blasts on MSC, 96 h, range over patient samples
# CHRF288-11 [23] = experiment: cells; design: species or system AML cell lines (8); details: 72 h, read-out: CHRF288-11
# [24] = secondary high-throughput screen, MOLM-13
# [25] = secondary high-throughput screen, MV4-11
# [26] = secondary high-throughput screen, CHRF288-11
# [27] = secondary high-throughput screen
# [28] = secondary high-throughput screen, CMS
# [29] = secondary high-throughput screen, […]
# [30] = secondary high-throughput screen, ML-2, read-out: average effective concentration, ML-2
# [31] = U-937, secondary high-throughput screen, U937, read-out: average effective concentration, U937
# [32] = secondary high-throughput screen, M07e
SMILES,EC50 (MOLM-13 [1]; [24]),EC50 (CHRF288-11 [3]; [26]),EC50 (CMS [5]; [28]),EC50 (M07e [6]; [29]),EC50 (ML2; [30]),EC50 (U937 [7]; [31]),EC50 (MV4-11 [8]),EC50 (CMK [4]; [27]),EC50 (MOLM-13 [10]; 72 h cell viability),EC50 (MV4-11 [2]; [25]),further results
CCC(=O)CCCCC[C@@H]1NC(=O)[C@H]2CCCCN2C(=O)[C@H]([C@@H](C)CC)NC(=O)[C@H](Cc2cn(OC)c3ccccc23)NC1=O [APICIDIN],130 nM,410 nM,220 nM,140 nM,180 nM,250 nM,> 10000 nM,,,,"average effective concentration, MV4-11 (MV4-11 [2]; [25]): Inactive; average effective concentration, CMK (CMK [4]; [27]): Inactive; EC50 (CMK [9]): > 10000 nM"
CC1=C(O)C(=O)C=C2C1=CC=C1[C@@]2(C)CC[C@@]2(C)[C@@H]3C[C@](C)(C(=O)O)CC[C@]3(C)CC[C@]12C [CELASTROL],,75 nM,64 nM,940 nM,67 nM,79 nM,> 10000 nM,69 nM,> 10000 nM,,"average effective concentration, MOLM-13 (MOLM-13 [1]; [24]): Inactive; average effective concentration, MV4-11 (MV4-11 [2]; [25]): Inactive"
CN1C(=O)[C@@]23C[C@]4([C@]56C[C@@]78SS[C@@](CO)(C(=O)N7[C@H]5Nc5ccccc56)N(C)C8=O)c5ccccc5N[C@@H]4N2C(=O)[C@]1(CO)SS3 [CHAETOCIN],62 nM,12 nM,10 nM,12 nM,26 nM,,,,,29 nM,"average effective concentration, CMK (CMK [4]; [27]): Inactive; EC50 (U937 [11]): 7.7 nM; EC50 (CMK [9]): > 10000 nM"
Nc1nc(Cl)nc2c1ncn2[C@H]1C[C@H](O)[C@@H](CO)O1 [CLADRIBINE],35 nM,170 nM,,,190 nM,87 nM,,30 nM,,24 nM,EC50 (M07e [6]; [32]): 14 nM; EC50 (CMS [12]): > 10000 nM
NC(=O)c1cccc(N)c1 [Compound 3-AMINOBENZAMIDE],3200 nM,3000 nM,,,3200 nM,,> 10000 nM,,,,EC50 (CMK [9]): > 10000 nM; EC50 (CMS [12]): > 10000 nM; EC50 (M07e [13]): > 10000 nM; EC50 (U937 [14]): > 10000 nM
CN1C(=O)[C@]23CC4=CC=C[C@H](O)[C@H]4N2C(=O)[C@@]1(CO)SS3 [GLIOTOXIN],,24 nM,26 nM,130 nM,25 nM,12 nM,> 10000 nM,16 nM,> 10000 nM,,"average effective concentration, MOLM-13 (MOLM-13 [1]; [24]): Inactive; average effective concentration, MV4-11 (MV4-11 [2]; [25]): Inactive; CHRF288-11 %inh (CHRF288-11 [15]): 141.2% and 155.7%; CMK %inh (CMK [16]): 129.2% and 125%; CMS %inh (CMS [17]): 108.9% and 102.6%; M07e %inh (M07e [18]): 143.7% and 136.2%; ML-2 %inh (ML-2; 72 h, 10 µM, inhibitor): 66.31%; ML-2 %inh (ML-2; 72 h, 10 µM; inhibitor): 62.11%; MOLM-13 %inh (MOLM-13 [19]): 95.14% and 103.3%; MV4-11 %inh (MV4-11 [20]): 84.27% and 75%; U937 %inh (U937 [21]): 86.1% and 87.37%"
C=C1C(=O)O[C@@H]2C[C@@H](C)[C@@H]3C=CC(=O)[C@@]3(C)[C@@H](O)[C@H]12 [HELENALIN],,,,,,,> 10000 nM,,> 10000 nM,,"average effective concentration, MOLM-13 (MOLM-13 [1]): Inactive; average effective concentration, MV4-11 (MV4-11 [2]): Inactive; EC50 (CHRF288-11 [3]): 170 nM; EC50 (CMK [4]): 190 nM; EC50 (CMS [5]): 210 nM; EC50 (M07e [6]): 340 nM; EC50 (ML2; ML-2, read-out: average effective concentration, ML-2): 130 nM; EC50 (U937 [7]; U-937, read-out: average effective concentration, U937): 170 nM"
"C=CC(=O)N1CCC[C@@H](n2nc(-c3ccc(Oc4ccccc4)cc3)c3c(N)ncnc32)C1 [Ibrutinib, reference compound]",6700 nM,,> 10000 nM,,,10000 nM,,> 10000 nM,,10000 nM,IC50 [22]: > 20000 nM
C[C@]12O[C@H](C[C@]1(O)CO)n1c3ccccc3c3c4c(c5c6ccccc6n2c5c31)CNC4=O [LESTAURTINIB],,110 nM,7.55 nM,,320 nM,41 nM,,3.3 nM,> 10000 nM,3200 nM,EC50 (M07e [6]; [32]): 1 nM
C[C@@H]1C[C@H]2O[C@@H]2/C=C\C=C\C(=O)Cc2c(Cl)c(O)cc(O)c2C(=O)O1 [RADICICOL],27 nM,92 nM,110 nM,,61 nM,15 nM,,66 nM,,21 nM,EC50 (M07e [13]): > 10000 nM
CC(C)[C@]12O[C@H]1[C@@H]1O[C@]13[C@]1(O[C@H]1C[C@H]1C4=C(CC[C@@]13C)C(=O)OC4)[C@@H]2O [TRIPTOLIDE],120 nM,,70 nM,,61 nM,100 nM,,10 nM,,230 nM,EC50 (M07e [6]; [32]): 10 nM; EC50 (CHRF288-11 [23]): > 10000 nM
COC(=O)[C@]1(C)CC[C@]2(C)CC[C@]3(C)C4=CC=C5C(=CC(=O)C(O)=C5C)[C@]4(C)CC[C@@]3(C)[C@@H]2C1 [[…]],,,,,,,> 10000 nM,,,,"EC50 (MOLM-13 [10]; MOLM-13, 72 h): > 10000 nM"
